{"source": "the SangsterLogP compilation"}
{"test": "method code SF-RC, from DOI: 10.1021/acs.jmedchem.5b00440, PMID: 26327138", "details": "pH 7.4"}
{"smiles": "Ic1ccc2nc(/C=C/c3ccccc3)[nH]c2c1", "logD": 3.25}
{"smiles": "Ic1ccc2cc(/C=C/c3cccnc3)sc2c1", "logD": 2.95}
{"smiles": "Ic1ccc2cc(/C=C/c3ccccc3)sc2c1", "logD": 2.34}
{"smiles": "CN(C)c1ccc(/C=C/c2nc3ccc(I)cc3s2)cc1", "logD": 3.15}
{"smiles": "Ic1ccc2cc(/C=C/c3cccnc3)oc2c1", "logD": 3.13}
{"smiles": "Ic1ccc2nc(/C=C/c3ccccc3)oc2c1", "logD": 3.95}
{"smiles": "CN(C)c1ccc(/C=C/c2nc3ccc(I)cc3[nH]2)cn1", "logD": 3.11}
{"smiles": "CN(C)c1ccc(/C=C/c2nc3ccc(I)cc3s2)cn1", "logD": 3.25}
{"smiles": "CN(C)c1ccc(C=Cc2cc3ccc(I)cc3s2)cc1", "logD": 2.4}
{"smiles": "Ic1ccc2nc(/C=C/c3cccnc3)[nH]c2c1", "logD": 3.15}
{"smiles": "CN(C)c1ccc(/C=C/c2cc3ccc(I)cc3s2)cn1", "logD": 2.85}
{"smiles": "CN(C)c1ccc(/C=C/c2cc3ccc(I)cc3o2)cc1", "logD": 2.11}
{"smiles": "Ic1ccc2nc(/C=C/c3cccnc3)oc2c1", "logD": 3.35}
{"smiles": "Ic1ccc2cc(/C=C/c3ccccc3)oc2c1", "logD": 2.38}
